Values quoted from earlier work in patent publication EP4691467A1, “USE OF INHIBITOR SPECIFICALLY TARGETING NLRP3 INFLAMMASOME” (Sichuan Jianlin Pharmaceutical Co., Ltd, priority 2023, dated 2024).

What was measured:
[1] = test system: experimental autoimmune encephalomyelitis (EAE); settings: in vivo
IL-18 = settings: Muckle Wells syndrome
ASC specks = settings: cells pre-treated with MCC950, pro-inflammatory conditions
[2] = phase II clinical trials, rheumatoid arthritis; trials suspended

## CC(C)(O)c1coc(S(=O)(=O)NC(=O)Nc2c3c(cc4c2CCC4)CCC3)c1 [MCC950]
[1]
  severity of disease models of multiple sclerosis (EAE): attenuate
IL-18
  release of IL-18 in plasma: shows efficacy in inhibiting
IL-1β
  production of IL-1β in vivo: reduce
ASC specks
  formation of ASC specks: inhibit
[2]
  hepatotoxicity: excessive hepatotoxicity
CAPS mouse model
  lethality of newborn mice: reduce
CAPS mouse model; newborn mice
  extension of lifespan: ~20 days
